“And” between values parts separate entries of the source, which are not always exact repeats. Identical values can stand only once. Like-named read-outs stand apart in the source and are kept apart here.
Experiments:
OR9/ORco = OR9/ORco (Anopheles gambiae, UniProt A0ABK8FPD1+Q7QCC7); assay type: cell-based
OR1/ORco [1] = biological target: T1, OR1/ORco (Anopheles gambiae, UniProt Q7QCC7+Q8WTE7); assay: Photina Ca2+ bioluminescence assay in Hi5 cells expressing OR1/ORco; assay type: cell-based; details: for EC50: OR1+ORco, agonist alone
T1 construct: expressed in transfected cells; host or cells: Trichoplusia ni BTI-Tn 5B1-4 HighFive (Hi5) cells, transient transfection with pEIA plasmids
T1 sequence (Q8WTE7 1-417): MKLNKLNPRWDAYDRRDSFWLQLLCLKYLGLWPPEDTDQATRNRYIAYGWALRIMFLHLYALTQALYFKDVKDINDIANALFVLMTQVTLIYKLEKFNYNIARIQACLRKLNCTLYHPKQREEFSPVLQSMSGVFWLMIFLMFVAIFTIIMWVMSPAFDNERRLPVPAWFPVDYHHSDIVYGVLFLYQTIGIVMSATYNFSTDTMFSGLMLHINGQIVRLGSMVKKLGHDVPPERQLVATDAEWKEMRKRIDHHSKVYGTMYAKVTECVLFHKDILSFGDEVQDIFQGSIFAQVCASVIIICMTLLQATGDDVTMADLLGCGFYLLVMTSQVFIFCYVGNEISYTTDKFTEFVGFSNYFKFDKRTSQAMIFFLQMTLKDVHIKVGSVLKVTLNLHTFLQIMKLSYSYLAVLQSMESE
T1 sequence (Q7QCC7 1-478): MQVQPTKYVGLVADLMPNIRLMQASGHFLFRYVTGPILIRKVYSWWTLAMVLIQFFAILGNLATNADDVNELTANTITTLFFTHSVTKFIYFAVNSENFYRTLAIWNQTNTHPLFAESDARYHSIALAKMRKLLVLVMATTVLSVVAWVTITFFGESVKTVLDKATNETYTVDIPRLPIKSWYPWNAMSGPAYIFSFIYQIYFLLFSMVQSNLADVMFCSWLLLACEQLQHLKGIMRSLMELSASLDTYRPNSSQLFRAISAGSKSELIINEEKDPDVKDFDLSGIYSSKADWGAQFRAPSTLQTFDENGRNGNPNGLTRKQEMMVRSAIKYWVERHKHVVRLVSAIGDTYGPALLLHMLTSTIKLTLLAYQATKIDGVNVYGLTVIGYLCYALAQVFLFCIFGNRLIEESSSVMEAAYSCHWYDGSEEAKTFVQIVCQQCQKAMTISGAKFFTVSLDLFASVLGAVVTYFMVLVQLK

OR1/ORco [2] = biological target: T1, OR1/ORco; set-up: method as in Tsitoura et al., 2015; details: agonist alone, ref Tsitoura et al., 2015; cited from earlier work
OR2/ORco [3] = biological target: T2, OR2/ORco (Anopheles gambiae, UniProt Q7QCC7+Q8WTE6); set-up: method as in Tsitoura et al., 2015; details: agonist alone, ref Tsitoura et al., 2015; cited from earlier work
T2 construct: expressed in transfected cells; host or cells: Trichoplusia ni BTI-Tn 5B1-4 HighFive (Hi5) cells, transient transfection with pEIA plasmids
T2 sequence (Q8WTE6 1-378): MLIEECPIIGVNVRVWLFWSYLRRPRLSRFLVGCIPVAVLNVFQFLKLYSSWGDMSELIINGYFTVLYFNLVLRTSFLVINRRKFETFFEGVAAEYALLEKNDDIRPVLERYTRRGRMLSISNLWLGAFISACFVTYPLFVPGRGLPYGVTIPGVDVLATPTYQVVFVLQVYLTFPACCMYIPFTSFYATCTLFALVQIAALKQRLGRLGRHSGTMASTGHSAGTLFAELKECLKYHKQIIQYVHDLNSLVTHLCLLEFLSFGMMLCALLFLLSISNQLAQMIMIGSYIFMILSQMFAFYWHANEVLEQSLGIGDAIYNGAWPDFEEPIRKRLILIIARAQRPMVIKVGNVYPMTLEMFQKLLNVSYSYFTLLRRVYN
T2 sequence (Q7QCC7 1-478): T1 sequence (Q7QCC7 1-478)

OR2/ORco [4] = biological target: T2, OR2/ORco; assay: Photina Ca2+ bioluminescence assay in Hi5 cells expressing OR2/ORco; assay type: cell-based; details: for EC50: OR2+ORco, agonist alone
OR53/ORco = OR53/ORco (Anopheles gambiae, UniProt A0ABK8FS74+Q7QCC7); assay type: cell-based
Chain of OR53/ORco (A0ABK8FS74 entry or part of it, one chain of several): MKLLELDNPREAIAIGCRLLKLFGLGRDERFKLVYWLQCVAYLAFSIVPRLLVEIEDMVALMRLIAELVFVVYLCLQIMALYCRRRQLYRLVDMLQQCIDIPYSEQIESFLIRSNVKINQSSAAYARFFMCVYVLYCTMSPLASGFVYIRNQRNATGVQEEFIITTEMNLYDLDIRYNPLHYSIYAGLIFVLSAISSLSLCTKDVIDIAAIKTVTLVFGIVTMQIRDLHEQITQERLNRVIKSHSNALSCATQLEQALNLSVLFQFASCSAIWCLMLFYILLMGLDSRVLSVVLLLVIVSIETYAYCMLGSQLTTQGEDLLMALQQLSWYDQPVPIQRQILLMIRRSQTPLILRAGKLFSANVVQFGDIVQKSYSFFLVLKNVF

ORco [5] = biological target: T3, ORco (Anopheles gambiae, UniProt Q7QCC7); assay: Photina Ca2+ bioluminescence assay in Hi5 cells expressing ORco alone; assay type: cell-based; details: ORco homomer
T3 construct: expressed in transfected cells; host or cells: Trichoplusia ni BTI-Tn 5B1-4 HighFive (Hi5) cells, transient transfection with pEIA.ORco and pEIA.Photina
T3 sequence (Q7QCC7 1-478): T1 sequence (Q7QCC7 1-478)

ORco [6] = biological target: T3, ORco; set-up: method as in Tsitoura et al., 2015; details: ORco homomer; ref Tsitoura et al., 2015; cited from earlier work
[7] = from the fitted dose-response curve, odorant alone

Chain of OR9/ORco (A0ABK8FPD1 entry or part of it, one chain of several): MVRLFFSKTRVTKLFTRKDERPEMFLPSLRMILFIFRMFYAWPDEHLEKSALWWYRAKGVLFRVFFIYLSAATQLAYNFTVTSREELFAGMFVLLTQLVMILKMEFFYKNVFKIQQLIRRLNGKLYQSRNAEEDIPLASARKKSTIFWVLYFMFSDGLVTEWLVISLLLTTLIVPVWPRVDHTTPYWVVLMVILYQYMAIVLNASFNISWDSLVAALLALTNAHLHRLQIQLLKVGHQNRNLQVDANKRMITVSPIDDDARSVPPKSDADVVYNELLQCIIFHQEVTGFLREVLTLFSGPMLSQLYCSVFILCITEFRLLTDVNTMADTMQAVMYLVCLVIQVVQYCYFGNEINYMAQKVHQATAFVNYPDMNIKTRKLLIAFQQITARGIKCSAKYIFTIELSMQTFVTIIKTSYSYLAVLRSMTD

SMILES: CCc1ccccc1O [2EP, 2-Ethylphenol]
- Concentration of the odorant at EC20 (OR9/ORco): 35 µM
- Functional response of receptor to odorant (OR9/ORco): responded
- EC50 (OR9/ORco; OR9+ORco, agonist alone): 77.6 µM
- pEC50 ± SE (OR9/ORco; OR9+ORco, agonist alone): 4.110 ± 0.009062
- EC50 (OR9/ORco; OR9+ORco, agonist alone, listed as 2-ethylphenol): ~78 µM

SMILES: Cc1ccc(O)cc1 [4MP, 4-Methylphenol]
- EC50 (OR1/ORco [1]): 1.2 µM
- Concentration of the odorant at EC20 (OR1/ORco [1]; [7]): 0.427 µM
- EC50 (OR1/ORco [2]): 2.8 µM

SMILES: c1ccc2[nH]ccc2c1 [IN, Indole]
- EC50 (OR2/ORco [3]): 3.4 µM
- EC50 (OR2/ORco [4]): 5.5 µM
- Concentration of the odorant at EC20 (OR2/ORco [4]; [7]): 3.3 µM

SMILES: C=CC(C)(O)CCC=C(C)C (stereo not shown) [LIN, Linalool]
- Concentration of the odorant at EC20 (OR53/ORco): 105 µM
- Functional response of receptor to odorant (OR53/ORco): clear responses
- EC50 (OR53/ORco; OR53+ORco, agonist alone): 181 µM
- pEC50 ± SE (OR53/ORco; OR53+ORco, agonist alone): 3.742 ± 0.04453
- EC50 (OR53/ORco; OR53+ORco, agonist alone, listed as linalool): ~180 µM

SMILES: CCc1ccc(NC(=O)CSc2nnc(-c3ccncc3)n2CC)cc1 [OA, N-(4-ethylphenyl)-2-((4-ethyl-5-(4-pyridinyl)-4H-1,2,4-triazol-3-yl)thio)acetamide]
- Potentiation magnitude at EC20 of odorant (OR1/ORco [1]; 10 µM OA (ORcoRAM2), 4MP at EC20 (427nM)): ~ 93 fold
- Relative efficacy§ (relative to 100 µM ORx-specific odorant) (OR1/ORco [1]; 10 µM ORcoRAM2 alone vs 100 µM 4MP, Figure 3A): 2.88 fold
- Relative efficacy§ (potentiation relative to 100 µM ORx-specific odorant) (OR1/ORco [1]; 10 µM ORcoRAM2 together with 100 µM 4MP vs 100 µM 4MP alone, Figure 3A): 32.45 fold
- Relative efficacy# (relative to 100 µM ORx-specific odorant) (OR1/ORco [1]; 100 µM ORcoRAM2 alone vs 100 µM 4MP, Figure 1C): 10,22 fold
- EC50 (OR1/ORco [1]): 57 µM and 56.6 µM
- Potentiation magnitude at EC20 of odorant (OR9/ORco): ~ 10 fold
- Relative efficacy# (relative to 100 µM ORx-specific odorant) (OR9/ORco): 10.4 fold
- Relative efficacy* (relative to ORco) (OR9/ORco): 1,05 fold
- Relative efficacy§ (potentiation relative to 100 µM ORx-specific odorant) (OR9/ORco): 4.94 fold
- Relative efficacy§ (relative to 100 µM ORx-specific odorant) (OR9/ORco): 0.05 fold
- EC50 (OR9/ORco; read-out: EC50): 79 µM and 78.7 µM
- EC50 (ORco [5]): 97 µM and 96.6 µM
- EC50 (ORco [5]; listed as OrcoRAM2): 100 µM
- EC50 (ORco [6]): 59 µM and 58.9 µM
- Relative efficacy* (relative to ORco) (OR53/ORco): 3.87 fold
- Relative efficacy§ (potentiation relative to 100 µM ORx-specific odorant) (OR53/ORco): 140.85 fold and 140 fold and 141 fold
- Relative efficacy§ (relative to 100 µM ORx-specific odorant) (OR53/ORco): 16.3 fold
- EC50 (OR53/ORco; read-out: EC50): 57 µM and 56.6 µM
- Potentiation magnitude at EC20 of odorant (OR2/ORco [4]): ~ 53 fold
- Relative efficacy§ (relative to 100 µM ORx-specific odorant) (OR2/ORco [4]; 10 µM ORcoRAM2 alone vs 100 µM IN, Figure 3A): 0.57 fold
- Relative efficacy§ (potentiation relative to 100 µM ORx-specific odorant) (OR2/ORco [4]; 10 µM ORcoRAM2 together with 100 µM IN vs 100 µM IN alone, Figure 3A): 8.09 fold
- Relative efficacy* (relative to ORco) (OR2/ORco [4]; 100 µM ORcoRAM2, no odorant, OR2/ORco vs ORco homomer, Figure 1A): 3.2 fold
- Relative efficacy# (relative to 100 µM ORx-specific odorant) (OR2/ORco [4]; 100 µM ORcoRAM2 alone vs 100 µM IN, Figure 1C): 6.22 fold
- EC50 (OR2/ORco [4]): 44 µM and 43.6 µM

— PMC5145856 (Frontiers in Cellular Neuroscience, 2016)
